According to patent publication US20240059698A1 (Accutar Biotechnology Inc., priority 2022, published 2024):

Legend:
[1] = test system: HCC827-SVD cells (human EGFR exon 20 insertion mutant D770_N771insSVD); assay: Cell growth inhibition (CellTiter-Glo), HCC827-SVD; format: cell-based; conditions: 72 h, 3 days
Procedure: (§1) Generation of HCC827-SVD, HCC827-ASV, and HCC827-YVMA cell lines. The HCC827-SVD cell line was generated by first transducing HCC827 cells (ATCC) with lentiviral particles expressing codon-optimized human EGFR exon 20 insertion mutant D770_N771insSVD, and then selecting under 5 µg/mL puromycin treatment for a week. The resulting cells were further transduced with lentiviral particles carrying EGFR sgRNA and CAS9 to knockout the endogenous alleles of EGER and then selected under 500 µg/mL hygromycin B treatment for two weeks. The limiting dilution approach was used to subsequently generate the single clone of the HCC827-SVD stable cell line. Endogenous EGFR knockout was confirmed by Sanger sequencing of cell genomic DNA, and expression of exogenous mutant EGFR was verified by Western blot analysis.
(§2) 2. Cell Growth Inhibition for HCC827, HCC827-SVD, HCC827-ASV, HCC827-YVMA, and A431.
(§3) HCC827(ATCC), HCC827-SVD, HCC827-ASV, and HCC827-YVMA cells were seeded in 96-well plates at 5000 cells/well in 90 μL of RPMI growth medium containing 10% FBS and 1% Penicillin Streptomycin. A431 (ATCC) cells were seeded in 96-well plates at 5000 cells/well in 90 μL of DMEM growth medium containing 10% FBS and 1% Penicillin Streptomycin. Cells were incubated at 37° C. overnight and then administered with 10 μL 10× test compounds prepared in the growth medium at various concentrations. After administration of the compounds, cells were incubated at 37° C. for 3 days. Before the CellTiter-Glo assay, the plates were equilibrated at room temperature for approximately 30 minutes. 100 ul of CellTiter-Glo reagent (Promega) was added to each well. The plates were then incubated at room temperature for 10 minutes and luminescence was recorded by the EnSight® multimode plate reader (PerkinElmer). Table 7 listed selected compounds in cellular growth assay.

[2] = test system: HCC827-YVMA cells (human ERBB2 exon20 insertion mutant A775_G776ins YVMA); assay: Cell growth inhibition (CellTiter-Glo), HCC827-YVMA; format: cell-based; conditions: 72 h, HCC827-YVMA cells, 3 days, CellTiter-Glo, read-out: Cell growth inhibition, GI50 (nM) HCC827-YVMA
Procedure: as §1
HCC827-ASV and HCC827-YVMA cell lines were generated in a similar approach as HCC827-SVD, except that HCC827 cells (ATCC) were first transduced with lentiviral particles expressing codon-optimized human EGFR exon 20 insertion mutant V769_D770insASV and human ERBB2 exon20 insertion mutant A775_G776ins YVMA, respectively.
as §2, §3

GI50 [1] [nM]	GI50 [2] [nM]	Structure (SMILES)
200 to 1000	200 to 1000	C=CC(=O)N1CCC(c2c[nH]c3ncnc(Nc4ccc(Oc5ccnc(NC6(C)CC6)c5)cc4F)c23)CC1 [Compound 56, 1-(4-(4-((2-fluoro-4-((2-((1-methylcyclopropyl)amino)pyridin-4-yl)oxy)phenyl)amino)-7H-pyrrolo[2,3-d]pyrimidin-5-yl)piperidin-1-yl)prop-2-en-1-one]
200 to 1000	200 to 1000	C=CC(=O)N1CCC(c2c[nH]c3ncnc(Nc4ccc(Oc5ccnc(N6CCC(C)(F)C6)c5)cc4F)c23)CC1 (centres unmarked) [Compound 57, 1-[4-[4-[2-fluoro-4-[[2-(3-fluoro-3-methyl-pyrrolidin-1-yl)-4-pyridyl]oxy]anilino]-7H-pyrrolo[2,3-d]pyrimidin-5-yl]-1-piperidyl]prop-2-en-1-one]
200 to 1000	50 to 200	C=CC(=O)N1CCC(c2c[nH]c3ncnc(Nc4ccc(Oc5ccnc(NCC(F)(F)F)c5)cc4F)c23)CC1 [Compound 58, 1-(4-(4-((2-fluoro-4-((2-((2,2,2-trifluoroethyl)amino)pyridin-4-yl)oxy)phenyl)amino)-7H-pyrrolo[2,3-d]pyrimidin-5-yl)piperidin-1-yl)prop-2-en-1-one]
> 1000	50 to 200	C=CC(=O)N1CCC(c2c[nH]c3ncnc(Nc4ccc(Oc5ccnc(Nc6ncc[nH]6)c5)cc4F)c23)CC1 [Compound 59, 1-(4-(4-((4-((2-((1H-imidazol-2-yl)amino)pyridin-4-yl)oxy)-2-fluorophenyl)amino)-7H-pyrrolo[2,3-d]pyrimidin-5-yl)piperidin-1-yl)prop-2-en-1-one]
50 to 200	200 to 1000	C=CC(=O)N1CCC(c2c[nH]c3ncnc(Nc4ccc(OCc5cnn6c5CCCC6)c(Cl)c4)c23)CC1 [Compound 60, 1-(4-(4-((3-chloro-4-((4,5,6,7-tetrahydropyrazolo[1,5-a]pyridin-3-yl)methoxy)phenyl)amino)-7H-pyrrolo[2,3-d]pyrimidin-5-yl)piperidin-1-yl)prop-2-en-1-one]
> 1000	200 to 1000	C=CC(=O)N1CCC(c2c[nH]c3ncnc(Nc4ccc(Oc5ccnc(-n6cc(F)cn6)c5)cc4F)c23)CC1 [Compound 61, 1-(4-(4-((2-fluoro-4-((2-(4-fluoro-1H-pyrazol-1-yl)pyridin-4-yl)oxy)phenyl)amino)-7H-pyrrolo[2,3-d]pyrimidin-5-yl)piperidin-1-yl)prop-2-en-1-one]
200 to 1000	50 to 200	C=CC(=O)N1CCC(c2c[nH]c3ncnc(Nc4ccc(OCc5nc(CNc6ncn(C)n6)cs5)c(Cl)c4)c23)CC1 [Compound 62, 1-(4-(4-((3-chloro-4-((4-(((1-methyl-1H-1,2,4-triazol-3-yl)amino)methyl)thiazol-2-yl)methoxy)phenyl)amino)-7H-pyrrolo[2,3-d]pyrimidin-5-yl)piperidin-1-yl)prop-2-en-1-one]
200 to 1000	200 to 1000	C=CC(=O)N1CCC(c2c[nH]c3ncnc(Nc4ccc(Oc5ccnc(N6C[C@H]7CCC[C@H]7C6)c5)cc4F)c23)CC1 [Compound 63, 1-(4-(4-((2-fluoro-4-((2-((3aR,6aS)-hexahydrocyclopenta[c]pyrrol-2(1H)-yl)pyridin-4-yl)oxy)phenyl)amino)-7H-pyrrolo[2,3-d]pyrimidin-5-yl)piperidin-1-yl)prop-2-en-1-one]
> 1000	200 to 1000	C=CC(=O)N1CCC(c2c[nH]c3ncnc(Nc4ccc(Oc5ccnc(C6CCOCC6)c5)cc4F)c23)CC1 [Compound 64, 1-(4-(4-((2-fluoro-4-((2-(tetrahydro-2H-pyran-4-yl)pyridin-4-yl)oxy)phenyl)amino)-7H-pyrrolo[2,3-d]pyrimidin-5-yl)piperidin-1-yl)prop-2-en-1-one]
200 to 1000	200 to 1000	C=CC(=O)N1CCC(c2c[nH]c3ncnc(Nc4ccc(Oc5ccnc(Nc6cccnc6)c5)cc4F)c23)CC1 [Compound 65, 1-(4-(4-((2-fluoro-4-((2-(pyridin-3-ylamino)pyridin-4-yl)oxy)phenyl)amino)-7H-pyrrolo[2,3-d]pyrimidin-5-yl)piperidin-1-yl)prop-2-en-1-one]
200 to 1000	50 to 200	C=CC(=O)N1CCC(c2c[nH]c3ncnc(Nc4ccc(Oc5ccnc(-c6ccn(C)n6)c5)cc4F)c23)CC1 [Compound 66, 1-(4-(4-((2-fluoro-4-((2-(1-methyl-1H-pyrazol-3-yl)pyridin-4-yl)oxy)phenyl)amino)-7H-pyrrolo[2,3-d]pyrimidin-5-yl)piperidin-1-yl)prop-2-en-1-one]
200 to 1000	200 to 1000	C=CC(=O)N1CCC(c2c[nH]c3ncnc(Nc4ccc(OCc5nnc[nH]5)c(Cl)c4)c23)CC1 [Compound 67, 1-(4-(4-((4-((4H-1,2,4-triazol-3-yl)methoxy)-3-chlorophenyl)amino)-7H-pyrrolo[2,3-d]pyrimidin-5-yl)piperidin-1-yl)prop-2-en-1-one]
< 50	< 50	C=CC(=O)N1CCC(c2c[nH]c3ncnc(Nc4ccc(OCc5cnc6n5CCCC6)c(Cl)c4)c23)CC1 [Compound 68, 1-(4-(4-((3-chloro-4-((5,6,7,8-tetrahydroimidazo[1,2-a]pyridin-3-yl)methoxy)phenyl)amino)-7H-pyrrolo[2,3-d]pyrimidin-5-yl)piperidin-1-yl)prop-2-en-1-one]
< 50	< 50	C=CC(=O)N1CCC(c2c[nH]c3ncnc(Nc4ccc(CNc5ccccn5)cc4F)c23)CC1 [Compound 69, 1-(4-(4-((2-fluoro-4-((pyridin-2-ylamino)methyl)phenyl)amino)-7H-pyrrolo[2,3-d]pyrimidin-5-yl)piperidin-1-yl)prop-2-en-1-one]
< 50	50 to 200	C=CC(=O)N1CCC(c2c[nH]c3ncnc(Nc4ccc(C(=O)Nc5ccccn5)cc4F)c23)CC1 [Compound 70, 4-((5-(1-acryloylpiperidin-4-yl)-7H-pyrrolo[2,3-d]pyrimidin-4-yl)amino)-3-fluoro-N-(pyridin-2-yl)benzamide]
< 50	< 50	C=CC(=O)N1CCC(c2c[nH]c3ncnc(Nc4ccc(OCc5cnccc5OC)c(Cl)c4)c23)CC1 [Compound 71, 1-(4-(4-((3-chloro-4-((4-methoxypyridin-3-yl)methoxy)phenyl)amino)-7H-pyrrolo[2,3-d]pyrimidin-5-yl)piperidin-1-yl)prop-2-en-1-one]
200 to 1000	50 to 200	C=CC(=O)N1CCC(c2c[nH]c3ncnc(Nc4ccc(Oc5ccnc(Nc6nccs6)c5)cc4F)c23)CC1 [Compound 72, 1-(4-(4-((2-fluoro-4-((2-(thiazol-2-ylamino)pyridin-4-yl)oxy)phenyl)amino)-7H-pyrrolo[2,3-d]pyrimidin-5-yl)piperidin-1-yl)prop-2-en-1-one]
< 50	< 50	C=CC(=O)N1CCC(c2c[nH]c3ncnc(Nc4ccc(OCc5ccc6cc[nH]c6n5)c(Cl)c4)c23)CC1 [Compound 73, 1-(4-(4-((4-((1H-pyrrolo[2,3-b]pyridin-6-yl)methoxy)-3-chlorophenyl)amino)-7H-pyrrolo[2,3-d]pyrimidin-5-yl)piperidin-1-yl)prop-2-en-1-one]
< 50	< 50	C=CC(=O)N1CCC(c2c(-c3ccc(N4CCN(C)CC4)cc3)[nH]c3ncnc(Nc4ccc(OCc5ccccn5)c(Cl)c4)c23)CC1 [Compound 74, 1-(4-(4-((3-chloro-4-(pyridin-2-ylmethoxy)phenyl)amino)-6-(4-(4-methylpiperazin-1-yl)phenyl)-7H-pyrrolo[2,3-d]pyrimidin-5-yl)piperidin-1-yl)prop-2-en-1-one]
